For three molecules, Activity results are on record in ChEMBL document CHEMBL2074448, “Transport of anthelmintic benzimidazole drugs by breast cancer resistance protein (BCRP/ABCG2)” (Drug Metab Dispos, 2005).

Holding throughout (format): functional, cell-based
Holding throughout (conditions): dog, mdck-ii

Data set [1] concerns the target T1, Broad substrate specificity ATP-binding cassette transporter ABCG2 (Mus musculus, UniProt Q7TMS5).
T1 sequence (Q7TMS5 whole entry): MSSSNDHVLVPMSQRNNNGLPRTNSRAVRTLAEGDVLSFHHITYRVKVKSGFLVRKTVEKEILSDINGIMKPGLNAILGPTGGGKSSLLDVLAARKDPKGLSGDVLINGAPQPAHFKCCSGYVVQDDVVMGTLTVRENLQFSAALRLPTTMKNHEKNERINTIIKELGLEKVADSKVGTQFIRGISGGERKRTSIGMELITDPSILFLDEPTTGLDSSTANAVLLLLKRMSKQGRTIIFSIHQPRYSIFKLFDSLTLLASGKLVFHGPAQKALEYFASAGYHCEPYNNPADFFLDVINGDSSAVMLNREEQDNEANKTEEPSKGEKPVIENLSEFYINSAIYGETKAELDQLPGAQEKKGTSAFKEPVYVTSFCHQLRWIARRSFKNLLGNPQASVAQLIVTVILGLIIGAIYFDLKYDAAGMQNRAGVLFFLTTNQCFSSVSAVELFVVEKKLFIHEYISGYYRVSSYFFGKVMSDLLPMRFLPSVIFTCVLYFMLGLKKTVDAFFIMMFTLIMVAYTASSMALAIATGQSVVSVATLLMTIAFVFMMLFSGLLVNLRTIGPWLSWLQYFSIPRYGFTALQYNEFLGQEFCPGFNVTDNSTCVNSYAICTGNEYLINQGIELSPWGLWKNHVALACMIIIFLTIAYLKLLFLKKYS
Nature of the data set: TP_TRANSPORTER: transepithelial transport of PhIP (basal to apical) in Bcrp1-expressing MDCKII cells.

For data set [2], the target named is T2, Broad substrate specificity ATP-binding cassette transporter ABCG2 (Homo sapiens, UniProt Q9UNQ0).
T2 sequence (Q9UNQ0 whole entry): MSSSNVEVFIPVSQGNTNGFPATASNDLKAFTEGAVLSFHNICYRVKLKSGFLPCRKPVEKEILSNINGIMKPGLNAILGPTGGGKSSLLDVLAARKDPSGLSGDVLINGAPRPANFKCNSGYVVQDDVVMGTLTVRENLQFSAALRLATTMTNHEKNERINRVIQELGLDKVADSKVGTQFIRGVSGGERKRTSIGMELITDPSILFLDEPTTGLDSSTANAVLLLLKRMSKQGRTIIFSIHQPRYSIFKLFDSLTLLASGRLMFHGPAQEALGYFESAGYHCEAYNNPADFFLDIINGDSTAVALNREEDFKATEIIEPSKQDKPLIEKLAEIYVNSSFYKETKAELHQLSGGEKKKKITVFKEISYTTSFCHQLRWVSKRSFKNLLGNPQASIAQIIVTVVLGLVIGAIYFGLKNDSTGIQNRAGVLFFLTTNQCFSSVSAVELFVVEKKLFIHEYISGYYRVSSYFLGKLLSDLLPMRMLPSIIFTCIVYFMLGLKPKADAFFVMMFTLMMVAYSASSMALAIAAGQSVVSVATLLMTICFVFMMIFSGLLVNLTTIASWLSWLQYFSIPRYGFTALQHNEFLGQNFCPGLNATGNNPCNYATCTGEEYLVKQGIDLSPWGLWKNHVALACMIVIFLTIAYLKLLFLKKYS
Nature of the data set: TP_TRANSPORTER: transepithelial transport (basal to apical) in BCRP-expressing MDCKII cells.

Data set [3] has as its target T1, Broad substrate specificity ATP-binding cassette transporter ABCG2. Nature of the data set: TP_TRANSPORTER: transepithelial transport (basal to apical) in Bcrp1-expressing MDCKII cells.
Data set [4] has as its target T2, Broad substrate specificity ATP-binding cassette transporter ABCG2. Nature of the data set: TP_TRANSPORTER: transepithelial transport of PhIP (basal to apical) in BCRP-expressing MDCKII cells.

As for `COc1ccc2c3c([nH]c2c1)[C@H](CC(C)C)N1C(=O)[C@H](CCC(=O)OC(C)(C)C)NC(=O)[C@@H]1C3`, the Activity result in data set [1] is “inhibitor []”.

Turning to `CCC[S+]([O-])c1ccc2[nH]c(NC(=O)OC)nc2c1` (stereo unspecified) [ALBENDAZOLE OXIDE], the Activity entry in data set [2] and in data set [3] was “substrate []” in each case.

`COC(=O)Nc1nc2ccc([S+]([O-])c3ccccc3)cc2[nH]1` (stereo unspecified) [OXFENDAZOLE]: the Activity result was “inhibitor []” in data set [1], “substrate []” in data set [3] and “inhibitor []” in data set [4].
